Laboratory results as given in PubChem BioAssay (NCI).
Where “and” joins values, the source holds several entries; their conditions need not be identical. Equal values may be shown once.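 How tested: cells in 96-well plates exposed to compound for 48 hours at five concentrations. GI50 is the concentration that inhibits growth by half. At the TGI there is no net growth.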

Legend:
Assay in all cases: growth of human tumour cells (NCI), 48 h
A498 renal = tested on: A498 renal
HS 578T breast = tested on: HS 578T breast
HT29 colon = tested on: HT29 colon
MOLT-4 leukemia = tested on: MOLT-4 leukemia
OVCAR-5 ovarian = tested on: OVCAR-5 ovarian
PC-3 prostate = tested on: PC-3 prostate
RPMI-8226 leukemia = tested on: RPMI-8226 leukemia
SF-268 CNS = tested on: SF-268 CNS
SK-MEL-5 melanoma = tested on: SK-MEL-5 melanoma
UO-31 renal = tested on: UO-31 renal

SMILES	GI50 (A498 renal)	TGI (A498 renal)	GI50 (HS 578T breast)	TGI (HS 578T breast)	GI50 (HT29 colon)	TGI (HT29 colon)	GI50 (MOLT-4 leukemia)	TGI (MOLT-4 leukemia)	GI50 (OVCAR-5 ovarian)	TGI (OVCAR-5 ovarian)	GI50 (PC-3 prostate)	TGI (PC-3 prostate)	GI50 (RPMI-8226 leukemia)	TGI (RPMI-8226 leukemia)	GI50 (SF-268 CNS)	TGI (SF-268 CNS)	GI50 (SK-MEL-5 melanoma)	TGI (SK-MEL-5 melanoma)	GI50 (UO-31 renal)	TGI (UO-31 renal)
COc1ccc(S(=O)(=O)n2c3ccccc3n3ncc(-c4nnc(C)o4)c23)cc1	0.298 µM	1.9 µM	0.394 µM	> 100 µM	0.381 µM	> 100 µM	0.502 µM	> 100 µM	2.1 µM	> 100 µM	0.478 µM	> 100 µM	0.527 µM	24.7 µM	3.11 µM	> 74.1 µM	0.401 µM	15 µM	0.474 µM	21.7 µM
Cc1c(N)nc(C(CC(N)=O)NCC(N)C(N)=O)nc1C(=O)NC(C(=O)NC(C)C(O)C(C)C(=O)NC(C(=O)NCCc1nc(-c2nc(C(=O)NCCCNCCCCN)cs2)cs1)C(C)O)C(OC1OC(CO)C(O)C(O)C1OC1OC(CO)C(O)C(OC(N)=O)C1O)c1cnc[nH]1 (stereo not drawn)	18.5 µg/mL	> 10 µM	5.69 µg/mL and 0.24 µg/mL	38.4 µg/mL	50.8 µg/mL	> 10 µM	4.22 µg/mL and 2.23 µg/mL	–	45.6 µg/mL	> 10 µM	15.3 µg/mL	–	13.3 µg/mL	> 10 µM	2.55 µg/mL and 0.324 µg/mL	23.8 µg/mL and > 10 µM	1.05 µg/mL and 0.164 µg/mL	15.9 µg/mL and > 10 µM	2.07 µg/mL and 0.691 µg/mL	5.71 µg/mL and > 10 µM
O=C(Nc1ccccc1C(=O)Nc1nccs1)c1ccccc1	–	> 100 µM	–	> 100 µM	–	> 100 µM	–	> 100 µM	–	> 100 µM	–	> 100 µM	–	> 100 µM	–	60.9 µM	–	67.3 µM	–	> 100 µM
COc1cc(N=Nc2cccc(S(N)(=O)=O)c2)c2ccccc2c1N	–	34.7 µM	–	> 27.2 µM	–	31 µM	–	25.2 µM	–	33.3 µM	–	23.9 µM	–	57.3 µM	–	31.9 µM	–	3.3 µM	–	30.6 µM
C[C@]12CC[C@H]3[C@@H](CCC4=C[C@@H](OC5OCC(OC6OC(CO)C(O)C(O)C6O)C(O)C5O)CC[C@@]43C=O)[C@@]1(O)CCC2C1=CC(=O)OC1 (stereo partly drawn)	–	2.99 µM	–	> 100 µM	–	5.35 µM	–	0.346 µM	–	3.78 µM	–	4.14 µM	–	2.75 µM	–	1.64 µM	–	–	–	3.45 µM
N#Cc1c(NCc2ccccc2)nc(NCc2ccccc2)c(C#N)c1-c1cccc(O)c1	2.01 µM	5.77 µM	3.76 µM	20.7 µM	41.3 µM	> 100 µM	3.3 µM	> 100 µM	21.3 µM	48 µM	4.66 µM	28.8 µM	3.11 µM	22.6 µM	19.5 µM	46.5 µM	–	–	6.12 µM	87.6 µM
Cn1c(O)c(N=NC(N)=S)c2ccccc21	97.7 µM	> 100 µM	23.4 µM	> 100 µM	> 100 µM	> 100 µM	> 100 µM	> 100 µM	> 100 µM	> 100 µM	79.9 µM	> 100 µM	> 100 µM	> 100 µM	62.8 µM	> 100 µM	38.1 µM	> 100 µM	–	–
